Test results from article PMC11508649 (International Journal of Molecular Sciences, 2024).
Read-outs that look alike come from different tables or passages of the source. Marks after values point to notes of the source that are not given here.

Legend:
[1] = biological target: T1, human 5-HT6 receptor (Homo sapiens, UniProt P50406); test: 5-HT6 receptor binding ([3H]-LSD, HEK293 cells); settings: cloned human receptor in HEK293, read-out: Ki ± SEM 5-HT6
T1 construct: expressed in transfected cells; host or cells: HEK293
T1 sequence (P50406 whole entry): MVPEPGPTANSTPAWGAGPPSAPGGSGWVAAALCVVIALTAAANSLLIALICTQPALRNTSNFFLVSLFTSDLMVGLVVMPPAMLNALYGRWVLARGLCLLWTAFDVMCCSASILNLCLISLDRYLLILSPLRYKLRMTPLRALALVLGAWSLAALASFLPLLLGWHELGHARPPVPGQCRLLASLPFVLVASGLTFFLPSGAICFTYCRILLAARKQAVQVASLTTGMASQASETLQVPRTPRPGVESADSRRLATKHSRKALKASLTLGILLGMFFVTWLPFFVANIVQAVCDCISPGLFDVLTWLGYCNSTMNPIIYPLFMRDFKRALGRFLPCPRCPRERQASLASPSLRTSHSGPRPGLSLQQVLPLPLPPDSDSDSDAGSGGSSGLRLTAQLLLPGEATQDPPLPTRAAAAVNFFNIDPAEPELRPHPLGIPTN
Protocol: (§1) Specifically, we assessed the displacement of [^3H]-raclopride, [^3H]-LSD, and [^3H]-5-CT from the cloned human D2L, 5-HT6, and 5-HT7 receptor, respectively, stably expressed in HEK293 cells, and [^3H]-ketanserin from the 5-HT2A receptor from the rat cortex.
(§2) For membrane preparation, cells were subcultured in 10 cm-diameter dishes, grown to 90% confluence, washed twice with prewarmed to 37 °C phosphate buffered saline (PBS) and pelleted by centrifugation (200 g) in PBS containing 0.1 mM EDTA and 1 mM dithiothreitol. Prior to membrane preparation, pellets were stored at −80 °C.
(§3) Cell pellets were thawed and homogenised in 20 volumes of assay buffer using an Ultra Turrax tissue homogeniser and centrifuged twice at […] for 20 min at 4 °C, with incubation for 15 min at 37 °C in between. The composition of the assay buffers was as follows: for 5-HT6R, 50 mM Tris-HCl, 0.5 mM EDTA and 4 mM MgCl2; and for 5-HT7bR, 50 mM Tris-HCl, 4 mM MgCl2, 10 μM pargyline and 0.1% ascorbate. All assays were incubated in a total volume of 200 μL in 96-well microtitre plates for 1 h at 37 °C. The process of equilibration was terminated by rapid filtration through Unifilter plates with a 96-well cell harvester, and radioactivity retained on the filters was quantified on a Microbeta plate reader. For displacement studies, the assay samples contained radioligands such as 2 nM [^3H]-LSD (85.2 Ci/mmol for 5-HT6R) or 0.6 nM [^3H]-5-CT (39.2 Ci/mmol) for 5-HT7R. Non-specific binding was defined using 10 μM methiothepine in the 5-HT6R or 5-HT7R binding experiments, respectively. Each compound was tested in triplicate at 7–8 concentrations (10^−11–10^−4 M). The inhibition constants (Ki) were calculated using the Cheng–Prusoff equation. Membrane preparation and general assay procedures for cloned receptors were adjusted to a 96-microwell format based on protocols previously described by us.

[2] = biological target: T2, human 5-HT7b receptor (Homo sapiens, UniProt P34969); test: 5-HT7 receptor binding ([3H]-5-CT, HEK293 cells); settings: cloned human receptor in HEK293, read-out: Ki ± SEM 5-TH7
T2 construct: expressed in transfected cells; host or cells: HEK293
T2 sequence (P34969 1-432 limits assumed): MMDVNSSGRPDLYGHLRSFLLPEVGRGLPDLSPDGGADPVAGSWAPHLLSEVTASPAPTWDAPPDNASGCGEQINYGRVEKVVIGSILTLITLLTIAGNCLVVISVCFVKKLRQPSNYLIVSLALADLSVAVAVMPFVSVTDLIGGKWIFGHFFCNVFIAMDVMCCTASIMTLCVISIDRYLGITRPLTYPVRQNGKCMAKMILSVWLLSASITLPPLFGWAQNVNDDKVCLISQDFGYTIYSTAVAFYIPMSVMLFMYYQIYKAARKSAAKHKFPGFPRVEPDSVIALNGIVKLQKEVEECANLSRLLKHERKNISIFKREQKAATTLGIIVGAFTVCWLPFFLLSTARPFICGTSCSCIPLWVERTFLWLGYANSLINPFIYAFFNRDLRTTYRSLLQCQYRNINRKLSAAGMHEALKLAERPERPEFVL
Protocol: as §1, §2, §3

[3] = biological target: human dopamine transporter (Homo sapiens, UniProt Q01959); test: DAT binding assay ([3H]-WIN 35,428, CHO-K1 membranes)
Chain of human dopamine transporter (Q01959 whole entry): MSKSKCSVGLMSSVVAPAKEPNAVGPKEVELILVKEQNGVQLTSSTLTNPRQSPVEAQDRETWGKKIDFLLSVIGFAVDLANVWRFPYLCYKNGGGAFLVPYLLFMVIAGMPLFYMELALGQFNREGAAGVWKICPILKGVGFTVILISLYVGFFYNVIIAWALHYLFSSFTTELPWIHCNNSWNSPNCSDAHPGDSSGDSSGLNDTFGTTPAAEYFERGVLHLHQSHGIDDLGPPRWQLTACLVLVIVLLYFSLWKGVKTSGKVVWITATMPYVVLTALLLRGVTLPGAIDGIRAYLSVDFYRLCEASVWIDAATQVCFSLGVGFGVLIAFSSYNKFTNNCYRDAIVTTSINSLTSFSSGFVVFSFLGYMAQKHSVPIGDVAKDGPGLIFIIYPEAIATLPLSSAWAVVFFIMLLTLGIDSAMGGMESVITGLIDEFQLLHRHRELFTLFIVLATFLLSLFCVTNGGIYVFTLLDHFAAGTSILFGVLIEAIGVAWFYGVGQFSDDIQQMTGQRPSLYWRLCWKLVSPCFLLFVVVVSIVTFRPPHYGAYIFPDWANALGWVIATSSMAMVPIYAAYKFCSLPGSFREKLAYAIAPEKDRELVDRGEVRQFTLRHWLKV
Protocol: (§6) Ten-micromolar stock solutions of tested compounds were prepared in DMSO. […] Each compound was tested in a screening assay at final concentrations of 10 µM and 1 µM. Results were expressed as percent inhibition of radioligand binding. Reference compounds were tested in 8 concentrations from 10^−5 to 10^−12 M (final concentration).
Radioligand binding was performed using membranes from CHO-K1 cells stably transfected with the human dopamine transporter (PerkinElmer, Waltham, MA, USA). All assays were carried out in duplicates. […] The microplate was covered with sealing tape, mixed and incubated for 120 min at 4 °C. The reaction was terminated by rapid filtration through GF/C filter mate pre-soaked with 0.5% polyethyleneimine for 30 min. Ten rapid washes with 200 µL of 50 mM Tris buffer (4 °C, pH 7.4) were performed using the automated harvester system Harvester-96 MACH III FM (Tomtec, Hamden, CT, USA). […] Radioactivity was counted using a MicroBeta2 scintillation counter (PerkinElmer, Turku, Finland). Data were fitted to a one-site curve-fitting equation with Prism 5 (GraphPad Software), and Ki values were estimated using the Cheng–Prusoff equation.

[4] = biological target: T3, human serotonin transporter (Homo sapiens, UniProt P31645); test: Serotonin transporter radioligand binding ([3H]-imipramine, HEK-293 membranes); settings: displacement of [3H]-imipramine, HEK-293 membranes; mean ± SEM of three experiments; read-out: Ki ± SEM SERT
T3 construct: purchased PerkinElmer; host or cells: HEK-293
T3 sequence (P31645 whole entry): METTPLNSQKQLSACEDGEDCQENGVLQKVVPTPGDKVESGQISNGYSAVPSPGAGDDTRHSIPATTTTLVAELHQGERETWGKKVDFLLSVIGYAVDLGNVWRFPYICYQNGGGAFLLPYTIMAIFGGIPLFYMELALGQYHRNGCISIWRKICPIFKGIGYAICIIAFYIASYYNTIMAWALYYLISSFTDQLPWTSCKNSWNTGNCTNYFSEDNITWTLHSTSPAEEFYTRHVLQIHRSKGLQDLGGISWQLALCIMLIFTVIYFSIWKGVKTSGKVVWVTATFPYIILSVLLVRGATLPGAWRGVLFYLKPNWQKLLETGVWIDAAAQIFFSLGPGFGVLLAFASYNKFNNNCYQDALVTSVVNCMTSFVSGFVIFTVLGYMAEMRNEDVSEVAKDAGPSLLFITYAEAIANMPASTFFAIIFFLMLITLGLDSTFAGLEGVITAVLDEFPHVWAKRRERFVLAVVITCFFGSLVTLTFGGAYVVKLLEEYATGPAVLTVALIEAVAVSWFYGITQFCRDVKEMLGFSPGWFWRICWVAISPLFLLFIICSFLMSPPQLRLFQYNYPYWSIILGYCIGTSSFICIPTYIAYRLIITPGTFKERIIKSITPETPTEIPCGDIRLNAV
Protocol: (§4) Each compound was tested in 6 concentrations from 10–5 to 10–10 M (final concentration).
(§5) All assays were carried out in duplicates.

[5] = biological target: human D2 receptor (Homo sapiens, UniProt P14416); test: D2 receptor binding assay; settings: cloned human D2 receptor; read-out: Ki ± SEM D2
Chain of human D2 receptor (P14416 whole entry): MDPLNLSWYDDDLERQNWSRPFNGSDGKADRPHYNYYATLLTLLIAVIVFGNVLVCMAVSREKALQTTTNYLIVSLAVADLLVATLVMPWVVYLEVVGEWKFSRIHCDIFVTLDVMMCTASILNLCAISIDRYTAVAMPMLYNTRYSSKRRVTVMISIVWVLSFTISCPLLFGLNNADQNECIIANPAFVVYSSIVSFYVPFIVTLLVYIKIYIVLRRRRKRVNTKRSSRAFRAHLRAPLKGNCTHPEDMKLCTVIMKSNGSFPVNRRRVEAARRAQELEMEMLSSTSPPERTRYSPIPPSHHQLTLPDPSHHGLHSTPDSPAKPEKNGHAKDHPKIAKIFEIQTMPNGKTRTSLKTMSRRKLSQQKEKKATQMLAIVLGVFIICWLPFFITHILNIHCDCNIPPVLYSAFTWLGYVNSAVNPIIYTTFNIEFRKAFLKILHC
Protocol: as §1, §4, §5

[6] = biological target: T4, 5-HT2A receptor (Rattus norvegicus, UniProt P14842); test: 5-HT2A binding assay ([3H]-ketanserin, rat cortex); settings: read-out: Ki ± SEM 5-HT2A
T4 construct: and for the native 5-HT2A receptor; from tissue; host or cells: rat cortex
T4 sequence (P14842 whole entry): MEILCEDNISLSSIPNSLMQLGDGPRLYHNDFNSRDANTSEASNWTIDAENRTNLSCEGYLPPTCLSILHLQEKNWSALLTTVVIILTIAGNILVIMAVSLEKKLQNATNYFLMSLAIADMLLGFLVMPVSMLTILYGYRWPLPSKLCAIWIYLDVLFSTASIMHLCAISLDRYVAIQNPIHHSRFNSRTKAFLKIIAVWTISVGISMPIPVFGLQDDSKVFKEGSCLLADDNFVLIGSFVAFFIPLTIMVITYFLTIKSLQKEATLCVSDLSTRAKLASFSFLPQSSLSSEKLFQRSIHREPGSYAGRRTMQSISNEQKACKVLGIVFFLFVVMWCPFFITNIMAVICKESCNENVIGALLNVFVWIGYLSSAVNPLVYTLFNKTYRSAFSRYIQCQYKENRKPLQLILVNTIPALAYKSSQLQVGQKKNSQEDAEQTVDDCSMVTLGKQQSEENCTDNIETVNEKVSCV
Protocol: as §1
Tissue preparations (rat cortex) and competition binding experiments for 5-HT2A receptors were carried out according to a previously described, standard technique using 0.5 nM of [^3H]-ketanserin as the radioligand and 10 μM of methysergide to determine non-specific binding. Following 20 min of incubation, the samples containing receptor homogenates and the investigated compounds (7–9 concentrations run in triplicate) were rapidly filtered under vacuum through GF/B glass fibre filters; the filters were washed extensively with an ice-cold buffer using a Brandel harvester. Bound radioactivity was measured by scintillation counting using a liquid scintillation cocktail. The inhibition constants (Ki) were calculated using the Cheng–Prusoff equation. Results are expressed as the means of at least three separate experiments.

[7] = biological target: T5, human 5-HT1A receptor (Homo sapiens, UniProt P08908); test: 5-HT1A receptor radioligand binding ([3H]-8-OH-DPAT, CHO-K1 membranes); settings: displacement of [3H]-8-OH-DPAT, mean ± SEM of three experiments, NC = not converged
T5 construct: purchased PerkinElmer; host or cells: CHO-K1
T5 sequence (P08908 1-422): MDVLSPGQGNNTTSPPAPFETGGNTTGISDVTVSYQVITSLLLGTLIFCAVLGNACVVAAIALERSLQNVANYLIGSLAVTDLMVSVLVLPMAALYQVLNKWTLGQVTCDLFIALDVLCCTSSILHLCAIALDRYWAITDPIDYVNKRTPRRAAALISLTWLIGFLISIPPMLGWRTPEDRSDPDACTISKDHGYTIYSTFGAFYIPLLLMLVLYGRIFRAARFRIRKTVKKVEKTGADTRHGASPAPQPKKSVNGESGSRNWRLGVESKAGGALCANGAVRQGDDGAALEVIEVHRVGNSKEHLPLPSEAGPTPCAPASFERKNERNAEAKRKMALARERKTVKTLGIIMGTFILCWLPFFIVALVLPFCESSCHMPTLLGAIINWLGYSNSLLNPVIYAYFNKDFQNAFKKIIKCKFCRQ
Protocol: as §4, §5

[8] = biological target: T5, human 5-HT1A receptor; settings: previously described 1H-indole analogues; read-out: Ki ± SEM 5-HT1A; cited from earlier work
[9] = biological target: T3, human serotonin transporter; settings: previously described 1H-indole analogues; read-out: Ki ± SEM SERT; cited from earlier work
[10] = biological target: α1-adrenoceptor; test: ADRA1 receptor binding assay ([3H]-prazosin, rat cortex); settings: read-out: Ki ± SEM α1
[11] = biological target: human norepinephrine transporter (Homo sapiens, UniProt P23975); test: NET binding assay ([3H]-nisoxetine, MDCK membranes)
Chain of human norepinephrine transporter (P23975 whole entry): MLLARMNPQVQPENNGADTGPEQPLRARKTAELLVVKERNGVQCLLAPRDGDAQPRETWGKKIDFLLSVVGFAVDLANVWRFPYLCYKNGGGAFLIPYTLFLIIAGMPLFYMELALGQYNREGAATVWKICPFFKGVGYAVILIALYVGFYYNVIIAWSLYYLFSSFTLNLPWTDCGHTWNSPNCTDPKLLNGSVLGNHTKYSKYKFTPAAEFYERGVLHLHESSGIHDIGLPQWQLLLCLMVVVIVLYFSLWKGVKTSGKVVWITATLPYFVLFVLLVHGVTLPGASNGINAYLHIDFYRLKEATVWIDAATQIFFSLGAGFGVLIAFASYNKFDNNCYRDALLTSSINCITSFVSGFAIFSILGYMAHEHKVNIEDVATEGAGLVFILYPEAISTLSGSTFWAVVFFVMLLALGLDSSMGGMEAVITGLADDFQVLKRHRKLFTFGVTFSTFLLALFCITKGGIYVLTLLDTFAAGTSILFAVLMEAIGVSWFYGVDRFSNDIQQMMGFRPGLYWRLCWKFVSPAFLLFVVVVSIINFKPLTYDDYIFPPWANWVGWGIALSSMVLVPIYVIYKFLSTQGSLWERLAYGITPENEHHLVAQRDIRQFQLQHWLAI
Protocol: We performed radioligand binding assays using membranes from CHO-K1 cells stably transfected with human DAT and membranes from MDCK cells stably transfected with human NET. This was accomplished by assessing the displacement of [^3H]-WIN35,428 and [^3H]-nisoxetine from cloned human DAT and NET, respectively.
as §6
Radioligand binding was performed using membranes from MDCK cells stably transfected with the human norepinephrine transporter (PerkinElmer, Waltham, MA, USA). All assays were carried out in duplicates. Measures of 50 µL of working solution of the tested compounds, 50 µL of [^3H]-nisoxetine (final concentration 4 nM) and 150 µL of diluted membranes (3 µg protein per well) prepared in assay buffer (50 mM Tris-HCl, pH 7.4, 120 mM NaCl; 5 mM KCl) were transferred to a polypropylene 96-well microplate using the 96-well pipetting station Rainin Liquidator (MettlerToledo, Beverly, MA, USA). […] The microplate was covered with sealing tape, mixed and incubated for 60 min at 4 °C. The reaction was terminated by rapid filtration through GF/C filter mate pre-soaked with 0.5% polyethyleneimine for 30 min. Ten rapid washes with 200 µL of 50 mM Tris buffer (4 °C, pH 7.4) were performed using the automated harvester system Harvester-96 MACH III FM (Tomtec, Hamden, CT, USA). […] Radioactivity was counted using a MicroBeta2 scintillation counter (PerkinElmer, Turku, Finland). Data were fitted to a one-site curve-fitting equation with Prism 5 (GraphPad Software), and Ki values were estimated using the Cheng–Prusoff equation.

SMILES	Ki [1]	Ki [2]	Ki [3]	Selectivity Ratio hDAT/hSERT ([3]; ratio of Ki values)	Ki [4]	Ki [5]	Ki [6]	Ki [7]	Ki [8]	Ki [9]	Ki [10]	Ki [11]	Selectivity Ratio hNET/hSERT ([11]; ratio of Ki values)	hNET screening procedure, displacement % ([11]; at 1 µM)
O=C1CC(c2c[nH]c3ccc(F)cc23)C(=O)N1CCCN1CC=C(c2c[nH]c3ncccc23)CC1 (stereo not drawn) [Compound 11, 1-(3-(4-(1H-Pyrrolo[2,3-b]pyridin-3-yl)-3,6-dihydropyridin-1(2H)-yl)propyl)-3-(5-fluoro-1H-indol-3-yl)pyrrolidine-2,5-dione]	1290 ± 147 nM	1130 ± 89 nM	288 ± 25.2 nM	31.3	9.2 ± 0.6 nM	51 ± 6 nM	1160 ± 96 nM	128 nM	–	–	–	–	–	–
O=C1CC(c2c[nH]c3ccc(F)cc23)C(=O)N1CCCN1CC=C(c2c[nH]c3ccccc23)CC1 (stereo not drawn) [Compound 20]	257 ± 17 nM	30 ± 4 nM	–	–	–	56 ± 7 nM	237 ± 17 nM	–	190 ± 8.5 nM	1.5 ± 0.2 nM	–	–	–	–
O=C1CC(c2c[nH]c3ccccc23)C(=O)N1CCCCN1CC=C(c2c[nH]c3ncccc23)CC1 (stereo not drawn) [Compound 4, 1-(4-(4-(1H-Pyrrolo[2,3-b]pyridin-3-yl)-3,6-dihydropyridin-1(2H)-yl)butyl)-3-(1H-indol-3-yl)pyrrolidine-2,5-dione]	1690 ± 186 nM	1420 ± 172 nM	–	–	47 ± 5 nM	78 ± 7 nM	1400 ± 71 nM	660 ± 60.2 nM	–	–	87 ± 2 nM	167 ± 13.8 nM	3.5	–
COc1ccc2[nH]cc(C3CC(=O)N(CCCN4CC=C(c5c[nH]c6ncccc56)CC4)C3=O)c2c1 (stereo not drawn) [Compound 8, 1-(3-(4-(1H-Pyrrolo[2,3-b]pyridin-3-yl)-3,6-dihydropyridin-1(2H)-yl)propyl)-3-(5-methoxy-1H-indol-3-yl)pyrrolidine-2,5-dione]	2970 ± 138 nM	1530 ± 76 nM	663 ± 15 nM	–	23 ± 2.8 nM	–	727 ± 43 nM	–	–	–	265 ± 6.5 nM	–	–	43% ^a
